This note sets out measurements from patent US10618907B2, “Cell-permeable, cell-compatible, and cleavable linkers for covalent tethering of functional elements” (Promega Corporation, priority 2015, dated 2020).

“Also recorded” adds a separate entry of the source.

The test system of experiment [1] is TNFα secretion in LPS stimulated THP-1 cells. As to the kind of experiment: Inhibition of TNFα secretion in LPS stimulated THP-1 cells (ELISA). The experiment is classed as cell-based, human. The settings on record: 2 h compound, LPS 250 ng/ml 24 h. The method, then:
Bioactivity was measured through inhibition of TNFα secretion in LPS stimulated THP-1 cells (FIGS. 8A-8C). THP-1 cells were plated into wells of 96-well plates at 100,000 cells/well, treated with serial dilutions of BIRB796 conjugates for 2 hours, and then stimulated for 24 hours with LPS (Sigma) at final concentration of 250 ng/ml. The supernatant was analyzed for human TNFα secretion by ELISA (R&D Systems). […] Thus, it imposes minimal impact on the chloroalkane features.
Inhibition of mitogen-activated protein kinases (MAPK) by BIRB796 reduces production of proinflammatory cytokines such as TNFα. Influence of the linkers on BIRB796 potency was tested by comparing the BIRB796 conjugates for inhibition of TNFα secretion from LPS-stimulated THP-1 cells (FIG. 32). THP-1 cells were plated in 96-well plates at 100,000 cells/well, treated with serial dilutions of BIRB796 (Cayman Chemical) and BIRB796-chloroalkane conjugates for 2 h, and then stimulated with LPS (Sigma) at final concentration of 250 ng mL−1 for 24 h. Supernatants were analyzed for human TNFα secretion by ELISA (R&D systems). Results indicates inverse correlation between the length of the cleavable chloroalkane linker and its influence on BIRB796 potency.
Background: In an ELISA, binding on a coated surface is turned into a signal by an enzyme label.

Experiment [2] has as its system HALOTAG protein. Conditions: 1 μM conjugate, up to 60 min, lysate of cells expressing HALOTAG fusion.
Method: The 4 BIRB* conjugates were compared for binding kinetics to a HALOTAG protein in a cell lysate or inside live cells. Binding kinetics to HALOTAG in lysate was measured by adding the BIRB*-chloroalkane conjugates to a lysate prepared from cells expressing a HALOTAG fusion protein at a final concentration of 1 μM. After 0-60 minutes incubation, a fraction of each reaction taken at different time points (each containing a different BIRB* conjugate) was removed, HALGOTAG TMR-fluorescent ligand (Promega Corporation) was added to a final concentration of 1 μM and allowed to bind to the HALOTAG protein (which remained unbound). The time point fractions were resolved on SDS-PAGE and scanned on a Typhoon 9400 fluorescent imager (GE Healthcare). Bands were quantitated using IMAGEQUANT (GE Healthcare), and binding kinetics were determined as the percent binding with time relative to time zero when no chloroalkylated compound was added.
Binding kinetics to HALOTAG in lysate (FIG. 23A) was measured by treating a lysate prepared from cells, expressing a HALOTAG fusion protein, with the Ibrutinib chloroalkane conjugates at a final concentration of 1 μM for up 60 minutes. After a specified incubation time, an aliquot was removed and treated with HALOTAG TMR-fluorescent ligand (Promega Corporation) at a final concentration of 1 μM to label the remaining unbound HALOTAG fusion protein. The aliquots were resolved on SDS-PAGE and scanned on a Typhoon 9400 fluorescent imager (GE Healthcare). Bands were quantitated using IMAGEQUANT (GE Healthcare), and binding kinetics was determined as the percent binding over time relative to time zero when no chloroalkane-tagged compound added.
Binding kinetics to HALOTAG in lysate (FIG. 31A) were measured by treating a lysate prepared from cells expressing a HALOTAG fusion protein with the BIRB796 chloroalkane conjugates at a final concentration of 1 μM for up to 60 minutes. After a specified incubation time, an aliquot was removed and treated with HALOTAG TMR-fluorescent ligand (Promega Corporation) at a final concentration of 1 μM to label the remaining unbound HALOTAG fusion protein. The aliquots were resolved on SDS-PAGE and scanned on a Typhoon 9400 fluorescent imager (GE Healthcare). Bands were quantitated using IMAGEQUANT (GE Healthcare), and binding kinetics was determined as the percent binding over time relative to time zero where no chloroalkane-tagged compound was added.
Experiment [3] has as its target T1, BTK:NLuc fusion (Homo sapiens, UniProt Q06187).
T1 construct: expressed in transfected cells
As to the kind of experiment: Capture efficiency of BTK:NLuc fusion onto HALOTAG coated magnetic beads. The settings on record: cell lysate, 1 μM conjugate, 2 hour. The experiment is classed as binding. On the procedure:
To interrogate capture efficiency of an interacting cellular target, a known target of Ibrutinib, BTK, was genetically fused to NANOLUC (NLuc) luciferase reporter (Promega Corporation). Since Ibrutinib is a covalent inhibitor of BKT, a TEV recognition site was incorporated between BTK and NLuc to allow proteolytic release of NLuc from the beads. Following a 2 hour treatment of cell lysate (from cells expressing the BTK:NLuc fusion) with 1 μM Ibrutinib chloroalkane conjugates (final concentration), the Ibrutinib chloroalkane conjugates, and their interacting BTK:NLuc target, were captured onto HALOTAG coated magnetic beads (Promega Corporation). Capture efficiency was determined as the percent of lost in bioluminescence in the unbound fractions relative to the untreated cell lysate.

For experiment [4], the target named is T1, BTK:NLuc fusion. As to the kind of experiment: Release of captured BTK:NLuc from HALOTAG beads by TEV or palladium-catalyzed cleavage, western. Conditions: anti-NLuc antibody. On the procedure:
To interrogate the efficiency of palladium-catalyzed cleavage of these linkers, the release of BTK:NLuc fusion covalently captured onto the HALOTAG beads was determined by two methods: i) TEV proteolytic cleavage and ii) palladium-catalyzed cleavage (FIG.
24B). TEV proteolytic cleavage of the fusion would lead to the release of NLuc while palladium catalyzed cleavage of the allyl carbamate group within the chloroalkane linker would result with the release of BTK:NLuc.

Experiment [5] concerns the target purified ABL1 (Homo sapiens, UniProt P00519). As to the kind of experiment: Inhibition of purified ABL1 by ponatinib conjugates. The format is biochemical. The text has this:
Two additional linkers were generated, one where the three other carbamates were replaced with amides, and the other where the two allyl carbamate groups were replaced with allyl ether linkages. […] The linkers were compared for their influence on binding to HALOTAG and ABL1 in biochemical and cellular assays.

Experiment [6] relates to STATS reporter expression. As to the kind of experiment: In-cell inhibition of STATS reporter expression by ponatinib conjugates. The experiment is classed as cell-based. Conditions: cellular assay. The source says: CA-T4E contains 4 carbamate groups, one of them essential for rapid binding kinetics to HALOTAG. Two additional linkers were generated, one where the three other carbamates were replaced with amides, and the other where the two allyl carbamate groups were replaced with allyl ether linkages. […] The linkers were compared for their influence on binding to HALOTAG and ABL1 in biochemical and cellular assays.

Experiment [7] relates to HALOTAG protein. Conditions: 10 μM conjugate, up to 90-120 min, live cells expressing HALOTAG.
Method: Binding kinetics to HALOTAG inside cells was measured by treating live cells expressing a HALOTAG protein with the BIRB* chloroalkane conjugates at a final concentration of 10 μM. After 0-120 minutes incubation time points, the medium was replaced with medium containing 5 μM HALOTAG TMR-fluorescent ligand, and the cells were incubated for additional 15 minutes allowing the TMR-fluorescent ligand to bind to the HALOTAG protein (which remained unbound). After the media was removed, the cells were lysed with a detergent lysis buffer, and the time points were analyzed as described above.
Both conjugates were compared for binding kinetics to HALOTAG inside live cells and for bioactivity. Binding kinetics to HALOTAG inside cells was measured by treating live cells expressing a HALOTAG protein with the BIRB796 chloroalkane conjugates at a final concentration of 10 μM. […] Bands were quantitated, and the binding kinetics were determined as the percent binding with time relative to time zero when no chloroalkylated compound was added.
Binding kinetics to HALOTAG inside cells (FIG. 23B) was measured by treating live cells, expressing a HALOTAG fusion protein, with the Ibrutinib chloroalkane conjugates at a final concentration of 10 μM for up to 90 minutes. […] Cells were then lysed with a detergent lysis buffer, and the samples at the various time points were analyzed as described above. […]

T1 sequence (Q06187 whole entry, species assumed, the tested form may be a part): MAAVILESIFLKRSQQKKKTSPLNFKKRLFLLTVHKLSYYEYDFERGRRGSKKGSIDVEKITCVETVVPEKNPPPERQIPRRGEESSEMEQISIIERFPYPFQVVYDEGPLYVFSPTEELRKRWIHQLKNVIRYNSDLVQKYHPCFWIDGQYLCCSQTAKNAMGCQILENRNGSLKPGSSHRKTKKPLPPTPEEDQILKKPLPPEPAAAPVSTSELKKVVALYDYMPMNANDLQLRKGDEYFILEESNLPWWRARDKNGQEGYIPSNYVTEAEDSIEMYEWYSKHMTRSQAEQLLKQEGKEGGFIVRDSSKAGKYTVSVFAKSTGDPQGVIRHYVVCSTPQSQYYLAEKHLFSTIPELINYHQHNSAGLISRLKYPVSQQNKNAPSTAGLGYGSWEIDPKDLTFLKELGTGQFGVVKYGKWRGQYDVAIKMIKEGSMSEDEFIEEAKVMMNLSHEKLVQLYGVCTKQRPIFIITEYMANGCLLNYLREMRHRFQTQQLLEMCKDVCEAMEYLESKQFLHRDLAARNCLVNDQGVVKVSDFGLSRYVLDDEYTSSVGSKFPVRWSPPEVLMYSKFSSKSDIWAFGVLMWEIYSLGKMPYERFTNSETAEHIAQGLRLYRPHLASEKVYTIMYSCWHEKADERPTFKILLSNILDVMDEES
Chain of purified ABL1 (P00519 whole entry, species assumed): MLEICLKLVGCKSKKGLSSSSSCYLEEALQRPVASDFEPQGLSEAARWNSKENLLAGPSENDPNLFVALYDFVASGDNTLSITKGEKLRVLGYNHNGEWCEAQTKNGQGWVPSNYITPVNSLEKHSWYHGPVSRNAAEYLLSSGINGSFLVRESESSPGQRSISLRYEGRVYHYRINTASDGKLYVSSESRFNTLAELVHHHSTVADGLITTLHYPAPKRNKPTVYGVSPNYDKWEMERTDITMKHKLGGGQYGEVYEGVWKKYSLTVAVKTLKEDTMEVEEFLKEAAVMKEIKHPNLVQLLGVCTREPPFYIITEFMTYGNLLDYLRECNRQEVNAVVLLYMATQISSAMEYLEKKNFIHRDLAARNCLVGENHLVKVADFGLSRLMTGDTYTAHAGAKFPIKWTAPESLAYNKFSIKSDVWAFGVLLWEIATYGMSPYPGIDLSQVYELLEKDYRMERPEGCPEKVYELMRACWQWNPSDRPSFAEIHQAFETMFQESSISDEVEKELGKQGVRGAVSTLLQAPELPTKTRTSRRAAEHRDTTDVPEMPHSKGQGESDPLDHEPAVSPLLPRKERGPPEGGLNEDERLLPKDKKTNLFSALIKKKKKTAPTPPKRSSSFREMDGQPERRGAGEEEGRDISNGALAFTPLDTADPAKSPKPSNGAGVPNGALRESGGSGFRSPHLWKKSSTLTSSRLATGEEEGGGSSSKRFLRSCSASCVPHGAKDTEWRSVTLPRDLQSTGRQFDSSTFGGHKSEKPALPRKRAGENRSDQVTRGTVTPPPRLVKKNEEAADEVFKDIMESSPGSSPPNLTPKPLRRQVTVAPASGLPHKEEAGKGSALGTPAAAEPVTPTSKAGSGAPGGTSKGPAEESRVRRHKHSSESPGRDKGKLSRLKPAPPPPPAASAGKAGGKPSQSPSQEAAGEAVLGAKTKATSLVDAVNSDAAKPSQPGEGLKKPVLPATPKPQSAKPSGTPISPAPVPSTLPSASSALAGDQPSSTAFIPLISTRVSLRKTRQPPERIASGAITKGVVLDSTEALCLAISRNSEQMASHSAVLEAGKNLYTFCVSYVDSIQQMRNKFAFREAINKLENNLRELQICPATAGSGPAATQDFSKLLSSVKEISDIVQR

In the case of `CC(C)(C)c1cc(NC(=O)Nc2ccc(OCCN3CCOCC3)c3ccccc23)n(-c2cccc(CNC(=O)OCCOCCOCCNC(=O)OC/C=C/COC(=O)NCCOCCOCCOC(=O)NCCOCCOCCCCCCCl)c2)n1` [BIRB796-CA-T4E], in experiment [1], the “inhibition of TNFα secretion (potency)” value is given as “potency similar to non-cleavable linker CA-T1”. Also, in experiment [2], the “binding kinetics to HALOTAG in lysate” value is on record as “faster binding to HALOTAG than respective linkers with a cis-double bond; also recorded: most similar to the non-cleavable linker CA-T1”.

For `CC(C)(C)c1cc(NC(=O)Nc2ccc(OCCN3CCOCC3)c3ccccc23)n(-c2cccc(CNC(=O)OC/C=C\COC(=O)NCCOCCOCCCCCCCl)c2)n1` [CA-T0], the “binding kinetics to HALOTAG in lysate” value in experiment [2] is listed as “lower binding kinetics to HALOTAG”.

Consider `CC(C)(C)c1cc(NC(=O)Nc2ccc(OCCN3CCOCC3)c3ccccc23)n(-c2cccc(CNC(=O)OC/C=C/COCCOC(=O)NCCOCCOCCCCCCCl)c2)n1` [CA-T2E], for which, in experiment [2], the “binding kinetics to HALOTAG in lysate” value is recorded as “faster binding to HALOTAG than respective linkers with a cis-double bond”.

Regarding `CC(C)(C)c1cc(NC(=O)Nc2ccc(OCCN3CCOCC3)c3ccccc23)n(-c2cccc(CNC(=O)OC/C=C/COC(=O)NCCOCCOCCOC(=O)NCCOCCOCCCCCCCl)c2)n1` [CA-T3E], the “binding kinetics to HALOTAG in lysate” value in experiment [2] is given as “faster binding to HALOTAG than respective linkers with a cis-double bond”.

Consider `CC(C)(C)c1cc(NC(=O)Nc2ccc(OCCN3CCOCC3)c3ccccc23)n(-c2cccc(CNC(=O)OCCOCCOCCNC(=O)OC/C=C\COC(=O)NCCOCCOCCOC(=O)NCCOCCOCCCCCCCl)c2)n1` [CA-T4Z], for which, in experiment [1], the “inhibition of TNFα secretion (potency)” value was “potency similar to non-cleavable linker CA-T1”.

Turning to `Nc1ncnc2c1c(-c1ccc(Oc3ccccc3)cc1)nn2[C@@H]1CCCN(C(=O)/C=C/CNC(=O)OC/C=C\COCCOC(=O)NCCOCCOCCCCCCCl)C1` [PBI-6025], the “capture efficiency of BTK:NLuc” value in experiment [3] was “reduced capture efficiency relative to PBI-6040”.

For the compound `Nc1ncnc2c1c(-c1ccc(Oc3ccccc3)cc1)nn2[C@@H]1CCCN(C(=O)/C=C/CNC(=O)OC/C=C/COCCOC(=O)NCCOCCOCCCCCCCl)C1` [PBI-6027], the “capture efficiency of BTK:NLuc” value in experiment [3] is given as “reduced capture efficiency relative to PBI-6040”.

For the compound `Nc1ncnc2c1c(-c1ccc(Oc3ccccc3)cc1)nn2[C@@H]1CCCN(C(=O)/C=C/CNC(=O)OC/C=C/COC(=O)NCCOCCOCCOC(=O)NCCOCCOCCCCCCCl)C1` [PBI-6029], the “capture efficiency of BTK:NLuc” value in experiment [3] is given as “did not interfere with capture efficiency”.

On to `Nc1ncnc2c1c(-c1ccc(Oc3ccccc3)cc1)nn2[C@@H]1CCCN(C(=O)/C=C/CNC(=O)OC/C=C\COC(=O)NCCOCCOCCOC(=O)NCCOCCOCCCCCCCl)C1` [PBI-6030], for which the “capture efficiency of BTK:NLuc” value in experiment [3] is recorded as “did not interfere with capture efficiency”.

As to `Nc1ncnc2c1c(-c1ccc(Oc3ccccc3)cc1)nn2[C@@H]1CCCN(C(=O)/C=C/CNC(=O)OC/C=C\COC(=O)NCCOCCOCCCCCCCl)C1` [PBI-6041], in experiment [3], the “capture efficiency of BTK:NLuc” value is recorded as “reduced capture efficiency relative to PBI-6040”. For the same compound, the “release of NLuc by TEV proteolytic cleavage” value in experiment [4] is recorded as “lower release”. Besides, the “binding kinetics to HALOTAG in lysate” value in experiment [2] was “lower binding kinetics to HALOTAG”.

For `Cc1ccc(C(=O)Nc2ccc(CN3CCN(CCCNC(=O)CCOCCOCCC(=O)NC/C=C/CNC(=O)CCOCCOCCOC(=O)NCCOCCOCCCCCCCl)CC3)c(C(F)(F)F)c2)cc1C#Cc1cnc2cccnn12` [ponatinib-tri-amide], the “inhibition of purified ABL1” value in experiment [5] is recorded as “comparable inhibition of purified ABL1”. Moreover, the “decrease of ponatinib potency relative to CA-T4E and all PEG linkers” value in experiment [6] amounted to 20 fold. Further, the “binding kinetics to HALOTAG inside live cells (cellular permeability)” value in experiment [7] was “reduced binding kinetics to intracellular HALOTAG”.
